Measurements reported in ChEMBL document CHEMBL1201862, “PubChem BioAssay data set” (2004).
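Dose response: 5 concentrations. Exposure: 48 h. Format: 96-well plates. Endpoint: linear interpolation; highest concentration if not reached. GI50 marks 50% less growth.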 The source made the active and inactive calls. Rule as the data show it: active = GI50 up to about 1.1 µM and inactive = higher.

Tests used:
Assay in all cases: NCI tumour cell line growth inhibition, 48 h
A549 = system: A549
ACHN = system: ACHN
COLO 205 = system: COLO 205
HCT-15 = system: HCT-15
HL-60 = system: HL-60
KM12 = system: KM12
MOLT-4 = system: MOLT-4
Malme-3M = system: Malme-3M
NCI-H23 = system: NCI-H23
OVCAR-3 = system: OVCAR-3
OVCAR-4 = system: OVCAR-4
RPMI-8226 = system: RPMI-8226
SF-539 = system: SF-539
SK-OV-3 = system: SK-OV-3
SN12C = system: SN12C
SNB-19 = system: SNB-19
SR = system: SR
HOP-92 = system: HOP-92

Compound | GI50 (A549) | GI50 (ACHN) | GI50 (COLO 205) | GI50 (HCT-15) | GI50 (HL-60) | GI50 (KM12) | GI50 (MOLT-4) | GI50 (Malme-3M) | GI50 (NCI-H23) | GI50 (OVCAR-3) | GI50 (OVCAR-4) | GI50 (RPMI-8226) | GI50 (SF-539) | GI50 (SK-OV-3) | GI50 (SN12C) | GI50 (SNB-19) | GI50 (SR) | GI50 (HOP-92)
O=S(=O)(C1=CC(S(=O)(=O)c2ccccc2)COC1)c1ccccc1 (configuration not stated) | > 100 µM (inactive) | > 100 µM (inactive) | > 100 µM (inactive) | > 100 µM | > 100 µM (inactive) | > 100 µM (inactive) | > 100 µM (inactive) | > 100 µM (inactive) | > 100 µM (inactive) | > 100 µM (inactive) | > 100 µM (inactive) | > 100 µM (inactive) | > 100 µM (inactive) | > 100 µM (inactive) | > 100 µM (inactive) | > 100 µM (inactive) | > 100 µM (inactive) | 
Cc1ccc(Nc2nc(C)c(C(/C=C/c3ccc(/C=C/C(=N/NC(=O)C[n+]4ccccc4)c4sc(Nc5ccc(C)cc5[N+](=O)[O-])nc4C)cc3)=N\NC(=O)C[n+]3ccccc3)s2)c([N+](=O)[O-])c1 | > 100 µM (inactive) | 82.8 µM (inactive) | > 100 µM (inactive) | 88.1 µM | 27.4 µM (inactive) | > 100 µM (inactive) | 76.7 µM (inactive) | > 100 µM (inactive) | > 100 µM (inactive) | > 100 µM (inactive) | > 100 µM (inactive) |  | 89.1 µM (inactive) | > 100 µM (inactive) | 55.8 µM (inactive) | > 100 µM (inactive) | 67.3 µM (inactive) | 
CCOC(=O)C(=O)Nc1cc(Cl)c(Cl)cc1Cl |  | > 100 µM (inactive) | > 100 µM (inactive) | > 100 µM |  | > 100 µM (inactive) | > 100 µM (inactive) | > 100 µM (inactive) | > 100 µM (inactive) | > 100 µM (inactive) | > 100 µM (inactive) | > 100 µM (inactive) | > 100 µM (inactive) | > 100 µM (inactive) | > 100 µM (inactive) | > 100 µM (inactive) |  | > 100 µM (inactive)
Cc1cnc2ccc(C)c([N+](=O)[O-])c2c1NCCCN(C)C | > 100 µM (inactive) | > 100 µM (inactive) | 76.2 µM (inactive) | > 100 µM | > 100 µM (inactive) | > 100 µM (inactive) | > 100 µM (inactive) | > 100 µM (inactive) | > 100 µM (inactive) | > 100 µM (inactive) | > 100 µM (inactive) | > 100 µM (inactive) | > 100 µM (inactive) | > 100 µM (inactive) | > 100 µM (inactive) | > 100 µM (inactive) | > 100 µM (inactive) | 
CC(C)C12Cc3c(ccc4ccccc34)OC1(C)Oc1ccc3ccccc3c1C2 (configuration not stated) | > 100 µM (inactive) | > 100 µM (inactive) | > 100 µM (inactive) |  |  | > 100 µM (inactive) | > 100 µM (inactive) | > 100 µM (inactive) | > 100 µM (inactive) | 59.7 µM (inactive) | > 100 µM (inactive) |  | > 100 µM (inactive) | > 100 µM (inactive) | > 100 µM (inactive) | > 100 µM (inactive) | > 100 µM (inactive) | > 100 µM (inactive)
O=C1Nc2ccccc2Nc2nc3cccccc-3c21 | > 100 µM (inactive) | > 100 µM (inactive) | > 100 µM (inactive) | > 100 µM | > 100 µM (inactive) | > 100 µM (inactive) |  | > 100 µM (inactive) | > 100 µM (inactive) | > 100 µM (inactive) | > 100 µM (inactive) | > 100 µM (inactive) | > 100 µM (inactive) | > 100 µM (inactive) | > 100 µM (inactive) | > 100 µM (inactive) | > 100 µM (inactive) | > 100 µM (inactive)
